Measured values published in patent publication US7006929B2, “Signal detecting sensor provided with multi-electrode” (Matsushita Electric Industrial Co., Ltd., priority 2001, dated 2006).

Test system: artificially reconstructed neural cell network (rat cerebral cortex neurons)
Experiment: stimulus transmission in reconstructed neural cell network on 64-electrode sensor
Type: cell-based
Details: 40 μM, treated for 10 minutes; constant voltage stimulus at one electrode (row 5, column 5)
Description: Neurons were prepared from the cerebral cortex of gestation day 17 rat embryos and were suspended in Dulbecco's modified medium, and were dispensed into each container of a sensor comprising 64 electrodes and containers as shown in FIG. 3 at a concentration of 5×10^5 cells/ml, followed by culturing for two weeks. As a result, an artificial neural cell network was reconstructed on the sensor. The sensor containing the reconstructed neural cell network was used as follows. An apparatus having the configuration of FIG. […] The transmission of the stimulus was measured by detecting cell potentials at the remaining 63 electrodes. […] A neural cell network reconstructed as in Examples 1 and 2 was treated with 40 μM DNQX (6,7-Dinitroquinoxaline-2,3(1H,4H)-dione) for 10 minutes. As in Example 2, a constant voltage stimulus was applied to a cell on a sensor. The transmission of the stimulus was measured by detecting cell potentials at the remaining 63 electrodes.

For `O=c1[nH]c2cc([N+](=O)[O-])c([N+](=O)[O-])cc2[nH]c1=O` [DNQX, 6,7-Dinitroquinoxaline-2,3(1H,4H)-dione], the “response (cell potentials) at the remaining 63 electrodes to constant voltage stimulus” value was “a response was not observed at any of the electrodes”.
